Experiments:
E. coli = assay: Growth of E. coli culture with antisense PS-ODN (colony forming units); assay type: cell-based, Escherichia coli; details: 10 μM PS-ODN, Lauria-Bertani medium; colony forming units vs untreated
Procedure: Further, to ensure that PS-ODN1 permeabilized within the M. smegmatis cells, PS-ODN1 were conjugated with 3′Flourescein label and used for the treatment of mycobacterial culture (˜1×10^5 cells of M. smegmatis were incubated with 10 μM PS-ODNs in 3 ml 7H9 Middlebrook broth supplemented with 10% ADC and grown at 37° C./200 rpm for 24 hrs). […] Since PS-ODN1 was mycobacteria specific, in E. coli where this insertion sequence is absent, when culture was treated with 10 μM PS-ODN1 had no effect on its growth. (FIG. 7, right panel).

endogenous PDF protein = assay type: cell-based, Mycobacterium smegmatis
[1] = system: Mycobacterium smegmatis strain mc^2155; assay: Growth profile of M. smegmatis culture with antisense PS-ODNs (OD600 and colony forming units); details: 10 μM PS-ODN, 24 h, 7H9 Middlebrook broth

With “PS-ODN1: 5′ phosphothiorate modified antisense oligodeoxyribonucleotide spanning bases 219-249 of M. tuberculosis def (insertion region); probably SEQ ID NO: 14 (antisense CGGATTGATGACCACACCGCGTCGGCGGGCGGTCAT; DNA, backbone and methylation of C not given here; phosphorothioate modified at 5'; listed as Mycobacterium tuberculosis)” the “effect on growth profile of E. coli” value (E. coli) was “no effect”, the “level of expression of endogenous PDF protein compared to untreated control” value (endogenous PDF protein) was “significant reduction” and the “decrease in growth of M. smegmatis compared to the untreated culture” value [1] was “five-fold decrease”.
